Results reported in patent US20110034454A1, “MORPHOLINO PYRIMIDINE DERIVATIVES AND THEIR USE IN THERAPY” (priority 2006, published 2011).
Several values for one entry are separate records, joined by “and”; a condition that tells them apart may be missing. Equal values may be shown once. Read-outs that look alike come from different tables or passages of the source.

Columns and labels:
[1] = system: phosphorylation of Serine 473 in Akt, MDA-MB-468 cells; assay: In vitro phospho-Ser473 Akt assay; type: cell-based; settings: Homo sapiens, MDA-MB-468, Test (c), mean of five occasions, read-out: IC50 versus Serine 473 in Akt, mean value
Description: (c) In Vitro Phospho-Ser473 Akt Assay
This assay determines the ability of test compounds to inhibit phosphorylation of Serine 473 in Akt as assessed using Acumen Explorer technology (Acumen Bioscience Limited), a plate reader that can be used to rapidly quantitate features of images generated by laser-scanning.
A MDA-MB-468 human breast adenocarcinoma cell line (LGC Promochem, Teddington, Middlesex, UK, Catalogue No. HTB-132) was routinely maintained at 37° C. with 5% CO2 up to a confluency of 70-90% in DMEM containing 10% heat-inactivated FCS and 1% L-glutamine.
For the assay, the cells were detached from the culture flask using ‘Accutase’ (Innovative Cell Technologies Inc., San Diego, Calif., USA; Catalogue No. AT104) using standard tissue culture methods and resuspended in media to give 1.7×10^5 cells per mL. Aliquots (90 μl) were seeded into each of the inner 60 wells of a black Packard 96 well plate (PerkinElmer, Boston, Mass., USA; Catalogue No. 6005182) to give a density of ˜15000 cells per well. […]
No. 10010015). […] An aliquot of PBS (50 μl) was added to each well and the plates were sealed with black plate sealers and the fluorescence signal was detected and analysed.
Fluorescence dose response data obtained with each compound were analysed and the degree of inhibition of Serine 473 in Akt was expressed as an IC50 value.

p110α Type Ia human PI3K = biological target: T1, p110α Type Ia human PI3K (Homo sapiens, UniProt P42336); assay: In vitro PI3K enzyme assay (AlphaScreen), p110α; type: biochemical; settings: Test (b)
T1 construct: full length DNA of each of the p110α, p110β and p110δ Type Ia human PI3K p110 isoforms; 6-His; made in house
T1 sequence (P42336 whole entry, canonical isoform): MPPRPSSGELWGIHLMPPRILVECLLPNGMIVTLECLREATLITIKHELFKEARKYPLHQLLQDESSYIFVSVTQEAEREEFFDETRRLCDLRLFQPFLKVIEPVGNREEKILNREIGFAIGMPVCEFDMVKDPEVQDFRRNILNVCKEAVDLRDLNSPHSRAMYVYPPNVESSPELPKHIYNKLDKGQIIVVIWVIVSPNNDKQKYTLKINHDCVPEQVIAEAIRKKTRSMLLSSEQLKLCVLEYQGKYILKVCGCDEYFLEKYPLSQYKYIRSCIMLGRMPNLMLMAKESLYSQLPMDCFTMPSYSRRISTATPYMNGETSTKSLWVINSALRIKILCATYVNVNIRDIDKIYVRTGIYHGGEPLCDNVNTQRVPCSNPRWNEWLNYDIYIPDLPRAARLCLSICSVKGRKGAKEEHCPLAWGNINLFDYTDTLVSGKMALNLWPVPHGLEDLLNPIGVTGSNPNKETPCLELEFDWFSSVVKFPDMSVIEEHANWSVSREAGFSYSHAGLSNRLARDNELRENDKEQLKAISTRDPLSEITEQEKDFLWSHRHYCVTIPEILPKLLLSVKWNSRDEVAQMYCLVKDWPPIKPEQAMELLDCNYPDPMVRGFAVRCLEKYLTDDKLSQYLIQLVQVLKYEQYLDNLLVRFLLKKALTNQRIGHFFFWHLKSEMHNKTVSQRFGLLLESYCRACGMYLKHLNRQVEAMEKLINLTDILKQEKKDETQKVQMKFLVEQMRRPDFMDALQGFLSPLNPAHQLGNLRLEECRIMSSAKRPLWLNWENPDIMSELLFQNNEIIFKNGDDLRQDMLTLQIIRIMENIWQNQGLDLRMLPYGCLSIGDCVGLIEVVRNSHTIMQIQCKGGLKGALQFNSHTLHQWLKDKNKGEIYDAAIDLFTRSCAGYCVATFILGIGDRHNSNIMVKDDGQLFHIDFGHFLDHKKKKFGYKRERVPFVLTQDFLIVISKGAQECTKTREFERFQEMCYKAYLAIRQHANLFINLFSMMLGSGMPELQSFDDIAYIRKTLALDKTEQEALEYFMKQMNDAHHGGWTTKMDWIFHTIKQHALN
T1 sequence (P27986 whole entry partner, canonical isoform): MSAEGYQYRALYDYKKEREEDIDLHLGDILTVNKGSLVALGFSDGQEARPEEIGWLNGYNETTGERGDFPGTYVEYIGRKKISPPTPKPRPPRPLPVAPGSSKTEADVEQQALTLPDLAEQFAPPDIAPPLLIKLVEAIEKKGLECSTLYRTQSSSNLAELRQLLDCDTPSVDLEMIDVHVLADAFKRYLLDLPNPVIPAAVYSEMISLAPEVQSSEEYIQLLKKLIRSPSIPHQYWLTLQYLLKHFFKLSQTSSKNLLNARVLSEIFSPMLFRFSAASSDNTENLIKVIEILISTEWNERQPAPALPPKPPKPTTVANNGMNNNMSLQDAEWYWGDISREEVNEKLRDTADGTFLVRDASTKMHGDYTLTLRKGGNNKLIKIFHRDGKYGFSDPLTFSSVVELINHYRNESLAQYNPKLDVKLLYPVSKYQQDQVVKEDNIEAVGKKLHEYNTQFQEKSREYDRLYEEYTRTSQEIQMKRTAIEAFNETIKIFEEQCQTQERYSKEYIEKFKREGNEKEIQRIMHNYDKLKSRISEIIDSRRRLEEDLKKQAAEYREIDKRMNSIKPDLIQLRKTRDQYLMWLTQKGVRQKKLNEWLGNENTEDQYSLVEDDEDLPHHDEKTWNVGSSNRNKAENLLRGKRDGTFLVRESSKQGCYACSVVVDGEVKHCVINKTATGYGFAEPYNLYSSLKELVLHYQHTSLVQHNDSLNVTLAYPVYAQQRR
Text: (b) In Vitro PI3K Enzyme Assay
The assay used AlphaScreen technology (Gray et al., Analytical Biochemistry, 2003, 313: 234-245) to determine the ability of test compounds to inhibit phosphorylation by recombinant Type I PI3K enzymes of the lipid PI(4,5)P2.
DNA fragments encoding human PI3K catalytic and regulatory subunits were isolated from cDNA libraries using standard molecular biology and PCR cloning techniques. The selected DNA fragments were used to generate baculovirus expression vectors. In particular, full length DNA of each of the p110α, p110β and p110δ Type Ia human PI3K p110 isoforms (EMBL Accession Nos. HSU79143, S67334, Y10055 for p110 α, p110β and p110δ respectively) were sub-cloned into a pDEST10 vector (Invitrogen Limited, Fountain Drive, Paisley, UK). The vector is a Gateway-adapted version of Fastbac1 containing a 6-His epitope tag. A truncated form of Type Ib human PI3K p110γ isoform corresponding to amino acid residues 144-1102 (EMBL Accession No. X8336A) and the full length human p85α regulatory subunit (EMBL Accession No. HSP13KIN) were also sub-cloned into pFastBac1 vector containing a 6-His epitope tag. The Type Ia p110 constructs were co-expressed with the p85α regulatory subunit. […]
20 hours at room temperature in the dark. The resultant signals arising from laser light excitation at 680 nm were read using a Packard AlphaQuest instrument. […]

recombinant mTOR = biological target: T2, recombinant mTOR (Homo sapiens, UniProt P42345); assay: In vitro mTOR kinase assay (AlphaScreen); type: biochemical; settings: Test (a)
T2 construct: FLAG; made in house
T2 sequence (P42345 1362-2549): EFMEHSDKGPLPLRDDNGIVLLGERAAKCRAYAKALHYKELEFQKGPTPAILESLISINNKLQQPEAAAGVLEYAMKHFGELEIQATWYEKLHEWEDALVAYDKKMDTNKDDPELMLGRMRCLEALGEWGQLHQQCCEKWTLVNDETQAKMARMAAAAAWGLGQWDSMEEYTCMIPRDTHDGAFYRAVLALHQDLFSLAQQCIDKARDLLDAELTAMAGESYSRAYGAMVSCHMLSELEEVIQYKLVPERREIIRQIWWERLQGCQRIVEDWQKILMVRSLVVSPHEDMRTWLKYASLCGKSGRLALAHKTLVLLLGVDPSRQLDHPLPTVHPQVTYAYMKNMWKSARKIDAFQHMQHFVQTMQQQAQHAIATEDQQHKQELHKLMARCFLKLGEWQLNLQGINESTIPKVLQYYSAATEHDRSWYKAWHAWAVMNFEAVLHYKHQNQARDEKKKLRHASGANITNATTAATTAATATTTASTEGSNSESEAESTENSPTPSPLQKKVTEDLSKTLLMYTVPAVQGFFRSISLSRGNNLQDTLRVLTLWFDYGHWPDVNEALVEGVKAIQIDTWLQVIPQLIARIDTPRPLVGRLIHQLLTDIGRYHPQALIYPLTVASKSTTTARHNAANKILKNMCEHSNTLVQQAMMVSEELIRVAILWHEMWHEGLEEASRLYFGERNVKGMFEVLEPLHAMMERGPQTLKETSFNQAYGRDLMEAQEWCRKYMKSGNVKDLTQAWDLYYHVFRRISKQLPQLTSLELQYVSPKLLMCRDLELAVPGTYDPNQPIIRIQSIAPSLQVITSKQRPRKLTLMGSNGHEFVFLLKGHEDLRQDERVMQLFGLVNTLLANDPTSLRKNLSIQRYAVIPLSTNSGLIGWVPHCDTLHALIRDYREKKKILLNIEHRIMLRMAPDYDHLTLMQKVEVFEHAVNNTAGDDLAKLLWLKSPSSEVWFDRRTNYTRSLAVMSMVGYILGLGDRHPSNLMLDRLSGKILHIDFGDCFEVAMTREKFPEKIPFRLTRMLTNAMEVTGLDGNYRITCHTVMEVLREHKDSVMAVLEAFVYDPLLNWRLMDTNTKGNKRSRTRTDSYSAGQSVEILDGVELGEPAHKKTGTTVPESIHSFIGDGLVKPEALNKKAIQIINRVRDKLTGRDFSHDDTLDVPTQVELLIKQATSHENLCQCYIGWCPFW
Description: (a) In Vitro mTOR Kinase Assay
The assay used AlphaScreen technology (Gray et al., Analytical Biochemistry, 2003, 313: 234-245) to determine the ability of test compounds to inhibit phosphorylation by recombinant mTOR.
The HEK293 FLAG-tagged mTOR (1362-2549) stable cell line was routinely maintained at 37° C. with 5% CO2 up to a confluency of 70-90% in Dulbecco's modified Eagle's growth medium (DMEM; Invitrogen Limited, Paisley, UK Catalogue No. 41966-029) containing 10% heat-inactivated foetal calf serum (FCS; Sigma, Poole, Dorset, UK, Catalogue No. F0392), 1% L-glutamine (Gibco, Catalogue No. 25030-024) and 2 mg/ml Geneticin
(G418 sulfate; Invitrogen Limited, UK Catalogue No. 10131-027). […]
Each reaction was stopped by the addition of 10 μl of a mixture of EDTA (50 mM), bovine serum albumin (BSA; 0.5 mg/mL) and Tris-HCl pH7.4 buffer (50 mM) containing p70 S6 Kinase (T389) 1A5 Monoclonal Antibody (Cell Signalling Technology, Catalogue No. 9206B) and AlphaScreen Streptavidin donor and Protein A acceptor beads (200 ng; Perkin Elmer, Catalogue No. 6760002B and 6760137R respectively) were added and the assay plates were left for about 20 hours at room temperature in the dark. The resultant signals arising from laser light excitation at 680 nm were read using a Packard Envision instrument. […]
mTOR enzyme inhibition for a given test compound was expressed as an IC50 value.

Row | Structure (SMILES) | IC50 [1] | IC50 (p110α Type Ia human PI3K; mean of three occasions, read-out: IC50 versus p110α Type Ia human PI3K, mean value) | IC50 (p110α Type Ia human PI3K; single occasions, read-out: IC50 versus p110α Type Ia human PI3K) | IC50 (recombinant mTOR; mean of three occasions, read-out: IC50 versus mTOR kinase, mean value) | IC50 (recombinant mTOR; single occasions, read-out: IC50 versus mTOR kinase)
1 | O=S(=O)(Cc1cc(N2CCOCC2)nc(-c2ccccn2)n1)c1ccccc1 [Example 44, 4-(benzenesulfonylmethyl)-6-morpholin-4-yl-2-pyridin-2-yl-pyrimidine] | 8.84 µM | – | – | – | –
2 | O=S(=O)(CCc1cccc(C(F)(F)F)c1)Cc1cc(N2CCOCC2)nc(-c2ccccn2)n1 [Example 65, 4-morpholin-4-yl-2-pyridin-2-yl-6-[2-[3-(trifluoromethyl)phenyl]ethylsulfonylmethyl] pyrimidine] | – | 6.8 µM | 1.9 µM and 13 µM and 5.7 µM | 5.4 µM | 3.9 µM and 4.1 µM and 8.2 µM
